Results reported in ChEMBL document CHEMBL1201862, “PubChem BioAssay data set” (2004).
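48-hour exposure; five concentrations; linearly interpolated endpoints. Abbreviation: GI50, concentration required for 50% inhibition of growth.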 Active and inactive are the calls of the source. Rule as the data show it: active = GI50 up to about 1.1 µM and inactive = higher.

Columns and labels:
Experiment in all cases: NCI anticancer screen, dose series, 48 h
EKVX = test system: EKVX
KM12 = test system: KM12
RXF 393 = test system: RXF 393
M14 = test system: M14
DU-145 = test system: DU-145
SK-MEL-2 = test system: SK-MEL-2
CAKI-1 = test system: CAKI-1
MDA-N = test system: MDA-N
HCT-116 = test system: HCT-116
LOX IMVI = test system: LOX IMVI
UACC-257 = test system: UACC-257
IGROV-1 = test system: IGROV-1
UACC-62 = test system: UACC-62
OVCAR-5 = test system: OVCAR-5
COLO 205 = test system: COLO 205
ACHN = test system: ACHN
NCI-H460 = test system: NCI-H460
A549 = test system: A549
Hs-578T = test system: Hs-578T

Compound	GI50 (EKVX)	GI50 (KM12)	GI50 (RXF 393)	GI50 (M14)	GI50 (DU-145)	GI50 (SK-MEL-2)	GI50 (CAKI-1)	GI50 (MDA-N)	GI50 (HCT-116)	GI50 (LOX IMVI)	GI50 (UACC-257)	GI50 (IGROV-1)	GI50 (UACC-62)	GI50 (OVCAR-5)	GI50 (COLO 205)	GI50 (ACHN)	GI50 (NCI-H460)	GI50 (A549)	GI50 (Hs-578T)
N=C(N)NS(=O)(=O)c1ccc(NC(=O)c2ccc3nc4ccccc4c(Nc4ccc(S(N)(=O)=O)cc4)c3c2)cc1	> 100 µM (inactive)	> 100 µM (inactive)	> 100 µM (inactive)	> 100 µM (inactive)	> 100 µM (inactive)	> 100 µM (inactive)	> 100 µM (inactive)	> 100 µM (inactive)	> 100 µM (inactive)	> 100 µM (inactive)	> 100 µM (inactive)	> 100 µM (inactive)	> 100 µM (inactive)	> 100 µM (inactive)	> 100 µM (inactive)	> 100 µM (inactive)	> 100 µM (inactive)	> 100 µM (inactive)	> 100 µM (inactive)
CCCC(CCC)C(=O)O [VALPROIC ACID]	> 100 µM (inactive)	14300 µM (inactive)	2570 µM (inactive)	> 100 µM (inactive)	10200 µM (inactive)	8000 µM (inactive)	7480 µM (inactive)	> 100 µM (inactive)	9730 µM (inactive)	6280 µM (inactive)	4530 µM (inactive)	5430 µM (inactive)	8810 µM (inactive)	> 100 µM (inactive)	4530 µM (inactive)	5450 µM (inactive)	4310 µM (inactive)	9060 µM (inactive)	12100 µM (inactive)
NC1CC(=O)c2c(Cl)sc(Cl)c21 (stereo not given)	2 µM (inactive)	3.06 µM (inactive)	1.45 µM (inactive)	3.85 µM (inactive)	5.55 µM (inactive)	12.4 µM (inactive)	2.7 µM (inactive)	4.56 µM (inactive)	1.43 µM (inactive)	1.51 µM (inactive)	3.16 µM (inactive)	4.12 µM (inactive)	2.64 µM (inactive)	19.3 µM (inactive)	1.63 µM (inactive)	2.33 µM (inactive)	14.5 µM (inactive)	12.7 µM (inactive)	19.2 µM (inactive)
CC(CCOc1c2ccoc2cc2oc(=O)ccc12)C1=CC(=O)C(C)(C)O1 (stereo not given)	> 100 µM (inactive)	> 100 µM (inactive)	> 100 µM (inactive)	> 100 µM (inactive)	> 100 µM (inactive)	> 100 µM (inactive)	> 100 µM (inactive)	> 100 µM (inactive)	> 100 µM (inactive)	> 100 µM (inactive)	> 100 µM (inactive)	> 100 µM (inactive)	> 100 µM (inactive)	> 100 µM (inactive)	> 100 µM (inactive)	> 100 µM (inactive)	> 100 µM (inactive)	> 100 µM (inactive)	> 100 µM (inactive)
COc1ccc(Nc2nc3ccccc3n3cccc23)cc1OC	25.7 µM (inactive)	13.1 µM (inactive)	12.9 µM (inactive)	15.8 µM (inactive)	17.1 µM (inactive)	19.2 µM (inactive)	25.2 µM (inactive)	15.9 µM (inactive)	16.9 µM (inactive)	14.4 µM (inactive)	16 µM (inactive)	20.9 µM (inactive)	14.3 µM (inactive)	32.7 µM (inactive)	14.4 µM (inactive)	21 µM (inactive)	12.9 µM (inactive)	17.5 µM (inactive)	37.9 µM (inactive)
CC[C@@]1(O)C(=O)OCc2c1cc1n(c2=O)Cc2c-1nc1ccccc1c2/C=N\NC(=O)C(N)CC(C)C (stereo not given in full)	0.438 µM (active)	0.152 µM (active)	< 0.0143 µM (active)	< 0.0128 µM (active)	< 0.01 µM (active)	0.6 µM (active)	< 0.01 µM (active)	0.171 µM (active)	0.0161 µM (active)	< 0.01 µM (active)	0.0536 µM (active)	0.233 µM (active)	< 0.01 µM (active)	0.726 µM (active)	0.708 µM (active)	< 0.01 µM (active)	< 0.01 µM (active)	0.016 µM (active)	11.3 µM (inactive)
N#CCCC1(CCC#N)CCCCCCC(CCC#N)(CCC#N)C(=O)C1=O	> 100 µM (inactive)	> 100 µM (inactive)	> 100 µM (inactive)	> 100 µM (inactive)	> 100 µM (inactive)	> 100 µM (inactive)	> 100 µM (inactive)	> 100 µM (inactive)	> 100 µM (inactive)	> 100 µM (inactive)	> 100 µM (inactive)	> 100 µM (inactive)	> 100 µM (inactive)	> 100 µM (inactive)	36.8 µM (inactive)	> 100 µM (inactive)	> 100 µM (inactive)	> 100 µM (inactive)	> 100 µM (inactive)
COc1ccc(-n2c3c(c4cc(O)ccc42)C(=O)c2ccccc2C3=O)cc1	4.74 µM (inactive)	2.13 µM (inactive)	2.84 µM (inactive)	> 100 µM (inactive)	19.1 µM (inactive)	5.75 µM (inactive)	95.7 µM (inactive)	> 100 µM (inactive)	0.305 µM (active)	4.71 µM (inactive)	> 100 µM (inactive)	3.79 µM (inactive)	3.5 µM (inactive)	6.04 µM (inactive)	80.5 µM (inactive)	0.682 µM (active)	3.97 µM (inactive)	11.7 µM (inactive)	7.24 µM (inactive)
Cn1cnc([N+](=O)[O-])c1Sc1nc(N)nc2c1ncn2[C@H]1C[C@H](O)[C@@H](CO)O1	9.18 µM (inactive)	2.77 µM (inactive)	8.32 µM (inactive)	1.16 µM (inactive)	1.21 µM (inactive)	2.45 µM (inactive)	4.05 µM (inactive)	4.36 µM (inactive)	2.86 µM (inactive)	0.434 µM (active)	8.32 µM (inactive)	5.13 µM (inactive)	1.51 µM (inactive)	3.08 µM (inactive)	4.63 µM (inactive)	3.52 µM (inactive)	1.03 µM (active)	4.63 µM (inactive)	10.3 µM (inactive)
O=C1c2ccccc2C(=O)c2c1ccc(C1C(=O)c3ccccc3C1=O)c2-c1c(C2C(=O)c3ccccc3C2=O)ccc2c1C(=O)c1ccccc1C2=O	> 100 µM (inactive)	> 100 µM (inactive)	> 100 µM (inactive)	> 100 µM (inactive)	> 100 µM (inactive)	> 100 µM (inactive)	> 100 µM (inactive)	> 100 µM (inactive)	> 100 µM (inactive)	74.3 µM (inactive)	> 100 µM (inactive)	> 100 µM (inactive)	> 100 µM (inactive)	> 100 µM (inactive)	> 100 µM (inactive)	> 100 µM (inactive)	> 100 µM (inactive)	> 100 µM (inactive)	> 100 µM (inactive)
